Measured values taken from patent US7361643B2, “Methods for inhibiting angiogenesis” (University of Puerto Rico, priority 2000, dated 2008).
Entries after “also recorded” stand apart in the source; their conditions may differ.

Tested on: bovine adrenal medullary microvascular endothelial cells
Experiment: Morphology by light microscopy and scanning electron microscopy
Assay type: cell-based
Conditions: 1 μg/ml tunicamycin, 2% (v/v) FBS
Method: The synchronized population of the above described bovine capillary endothelial cells was exposed to tunicamycin (lot number 10922120-07 from Boehringer-Mannheim, Indianapolis, Ind.) with no history of protein synthesis inhibition, for different lengths of time at various concentrations, as shown, e.g., in FIG. 3, in a complete EMEM containing 2% (v/v) fetal bovine serum (FBS) (heat-inactivated) at 37° C. to evaluate the morphological changes. The cells were monitored by phase-contrast light microscopy as well as by scanning electron microscopy.
For scanning electron microscopy, 5×10^3 cells were cultured on 13 mm round Thermanox coverslips in 12 well clusters (COSTAR) in complete EMEM. Cells were synchronized as mentioned above and cultured in EMEM containing either 2% (v/v) FBS (control), 10% (v/v) FBS or 2% (v/v) FBS plus 1 μg/ml tunicamycin. The coverslips were removed at specified times and the cells were fixed in 2.5% (v/v) glutaraldehyde for 30 minutes. The cells were washed three times (10 minutes each) with Millonigs (1961) isotonic phosphate buffer, pH 7.3, and treated with 1% (w/v) osmium tetroxide for 15 minutes. See MILLONIG, “Advantages of a Phosphate Buffer for Osmium Tetroxide Solutions in Fixation”, J. Appl. Physics, 32:1637 (1961), the disclosure of which is herein incorporated by reference in its entirety. […]

For tunicamycin, the “morphology by light microscopy” value was “cell shrinkage, loss of membrane contact with neighboring cells, apparent compaction of nuclei showing condensed pyknotic appearance and membrane fragmentation; also recorded: cell shrinkage, loss of membrane contact with neighboring cells, apparent compaction of nuclei showing condensed pyknotic appearance, and membrane fragmentation” and the “surface morphology by scanning electron microscopy” value (96 hours) was “considerable surface blebbing; also recorded: enormous surface blebbing”.
